Measured values taken from US9840495B2, “Oxindole derivatives carrying a piperidyl-substituted azetidinyl substituent and use thereof for treating vasopressine-related diseases” (AbbVie Deutschland GmbH & Co. KG, priority 2013, dated 2017).

Tests used:
[1] = molecular target: human vasopressin V1a receptor (Homo sapiens, UniProt P37288); experiment: Vasopressin V1a receptor binding assay (125I-AVP displacement, CHO-K1 membranes); conditions: selectivity quotient, human V1a vs human V1b receptor binding
[2] = molecular target: T1, human vasopressin V1b receptor (Homo sapiens, UniProt P47901); experiment: biochemical
T1 sequence (P47901 1-424): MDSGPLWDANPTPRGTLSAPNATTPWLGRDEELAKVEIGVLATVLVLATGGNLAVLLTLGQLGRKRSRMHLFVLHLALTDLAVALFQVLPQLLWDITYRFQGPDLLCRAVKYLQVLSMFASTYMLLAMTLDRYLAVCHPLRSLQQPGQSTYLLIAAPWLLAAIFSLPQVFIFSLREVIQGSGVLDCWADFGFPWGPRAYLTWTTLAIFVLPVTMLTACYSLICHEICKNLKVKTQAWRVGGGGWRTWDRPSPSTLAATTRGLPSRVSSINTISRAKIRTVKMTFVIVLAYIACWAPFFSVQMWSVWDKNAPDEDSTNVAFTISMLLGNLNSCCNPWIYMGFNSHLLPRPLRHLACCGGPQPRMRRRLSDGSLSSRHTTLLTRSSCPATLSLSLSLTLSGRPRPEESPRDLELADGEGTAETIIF

Sequence of human vasopressin V1a receptor (P37288 whole entry): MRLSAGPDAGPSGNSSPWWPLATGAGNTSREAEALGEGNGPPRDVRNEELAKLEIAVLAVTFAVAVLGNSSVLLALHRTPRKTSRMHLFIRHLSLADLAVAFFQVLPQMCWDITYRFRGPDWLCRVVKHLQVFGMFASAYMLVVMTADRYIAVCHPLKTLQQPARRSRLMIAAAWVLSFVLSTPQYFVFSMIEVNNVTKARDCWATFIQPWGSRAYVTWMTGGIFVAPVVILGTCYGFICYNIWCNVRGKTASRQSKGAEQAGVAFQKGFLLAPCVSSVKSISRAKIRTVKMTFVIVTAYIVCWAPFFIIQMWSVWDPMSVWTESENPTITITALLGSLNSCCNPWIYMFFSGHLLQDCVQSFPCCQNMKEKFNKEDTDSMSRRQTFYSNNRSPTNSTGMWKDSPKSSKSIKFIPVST

Q: CCOc1ncccc1[C@]1(NC(=O)N2CC(N3CCC(N(C)C4COC4)CC3)C2)C(=O)N(S(=O)(=O)c2ccc(OC)cc2OC)c2cc(F)c(C#N)cc21 [Example 10, (S)—N-(5-Cyano-1-((2,4-dimethoxyphenyl)sulfonyl)-3-(2-ethoxypyridin-3-yl)-6-fluoro-2-oxoindolin-3-yl)-3-(4-(methyl(oxetan-3-yl)amino)piperidin-1-yl)azetidine-1-carboxamide] was tested. Which “Ki(h-V1a)/Ki(h-V1b)” value [1] did it give?
A: +++ (>75)

Q: What about the Ki [2] of the same compound?
A: < 1 nM
